Biological target: T1, Dimer of Gag-Pol polyprotein [489-587] (Human immunodeficiency virus 1, UniProt P12497)
T1 construct: 489-587
Test: Protease Inhibition Assay
Settings: pH 5.5; 30 °C

CC(C)(C)NC(=O)[C@@H]1C[C@@H]2CCCC[C@@H]2CN1C[C@@H](O)[C@H](Cc1ccccc1)NC(=O)[C@@H](NC(=O)c1ccc2ccccc2n1)[C@H]1CCOC1 [(3S,4aS,8aS)-N-tert-butyl-2-[(2R,3S)-2-hydroxy-3-[(2S)-2-[(3R)-oxolan-3-yl]-2-(quinolin-2-ylformamido)acetamido]-4-phenylbutyl]-decahydroisoquinoline-3-carboxamide]
IC50: 0.054 nM
